Laboratory results as given in patent US7098307B2, “Neo-tryptophan” (Mayo Foundation for Medical Education and Research, priority 1998, dated 2006).
Values joined by “and” are separate entries in the source; they are usually repeats but may differ in a detail not shown here. Equal entries are not always repeated. Square brackets hold non-standard residues; d marks the D form. Peptide text beside a SMILES is read from it. Ala(indol-4-yl) = N[C@@H](Cc1cccc2[nH]ccc12)C(=O)O; NMeR = CN[C@@H](CCCNC(=N)N)C(=O)O; Tle = CC(C)(C)[C@H](N)C(=O)O

Tests used:
[1] = Hot plate test (antinociception, % MPE) in rats
[2] = Catalepsy bar test in rats; assay type: in vivo, rat
Experimental: The following experiments were performed to assess the ability of NT69L to cause and influence catalepsy. Male Sprague-Dawley rats (150–250 g) or CD-1 mice (24–26 g) were housed in a temperature-controlled room in groups of five with free access to food and water. The animals were kept on a 12 hour light/dark cycle, and all tests were performed during the light cycle. […] Thirty minutes after injection, the animals were tested for catalepsy. For rats, the test involved simply placing the animal's fore paws on a suspended metal bar 10 mm in diameter, 11 cm above the counter. The time elapsed until the animal's fore paws touch the counter was recorded. […] The cut-off time was 20 seconds, and each animal was tested three times for each time point.

[3] = Catalepsy (fixed rearing posture) in mice; assay type: in vivo; details: 5 mg/kg ip
Experimental: The following experiments were performed to assess the ability of NT69L to cause and influence catalepsy. Male Sprague-Dawley rats (150–250 g) or CD-1 mice (24–26 g) were housed in a temperature-controlled room in groups of five with free access to food and water. The animals were kept on a 12 hour light/dark cycle, and all tests were performed during the light cycle. The test for catalepsy is well established and quite simple (Munkvad et al., Brain Behav. Evol. 1:89–100(1968)). […] Thirty minutes after injection, the animals were tested for catalepsy. For rats, the test involved simply placing the animal's fore paws on a suspended metal bar 10 mm in diameter, 11 cm above the counter. The time elapsed until the animal's fore paws touch the counter was recorded. […] For mice, catalepsy was scored based on the time that the mice maintained a fixed rearing posture against the side of the cage (Adams et al., Proc. Natl. Acad. Sci. USA 94:12157–12161 (1997)). The cut-off time was 20 seconds, and each animal was tested three times for each time point.

[4] = molecular target: T1, rat NTR1 (Rattus norvegicus, UniProt P20789); assay: PI turnover ([3H]IP1) in intact CHO-K1 cells, rat NTR1; assay type: cell-based
T1 construct: expressed in transfected cells; host or cells: CHO-K1
Experimental: (§1) To measure PI turnover, intact CHO-K1 cells were harvested at about 80% confluency. Cells were detached from the petri plates by removal of culture medium followed by incubation of the cellular monolayer for 20 minutes at 37° C. with gentle shaking in a modified Puck's D1 solution containing 2 mM EGTA. […] Briefly, intact CHO cells were prelabeled with D-myo-[^3H]inositol (18.3 Ci/mmol) in the presence of lithium chloride (final concentration, 10 mM). […] For the experiments described herein, the stimulation time was 30 minutes, and the number of CHO cells per assay tube was 1.5×10^5.

[5] = system: NT binding sites; assay: [125I]NT binding in brain tissue of rats chronically treated; assay type: in vivo, rat; details: 1 mg/kg ip daily four days, 5 mg/kg day five
Experimental: The effect of chronic treatment with NT69L on the number of NT binding sites within brain was assessed. Rats were treated daily with NT69L (1 mg/kg; ip) for four days. On day five, the rats were treated with 5 mg/kg (ip) NT69L, tested behaviorally, and then sacrificed. The PAG and rest of brain were dissected from the animal and used in NT binding analysis. Briefly, homogenates were prepared from freshly obtained PAG and the rest of brain of rats according to Goedert et al. (Brain Res. 304, 71–81 (1984)) with the following modifications: the assay buffer contained the peptidase inhibitors 1,10 phenanthroline (1 μM) and aprotonin (5 mg/ml). For PAG and rest of brain binding assays, tissues were incubated with 0.3 nM [^125I]NT (NEN, Boston, Mass.) at room temperature for 30 minutes. Total and nonspecific binding was measured and the binding sites were normalized to polypeptide concentrations by BCA protein determination (Pierce Chemical Co., Rockford, Ill.).

[6] = molecular target: T2, human NTR1 (Homo sapiens, UniProt P30989); assay: PI turnover ([3H]IP1) in intact CHO-K1 cells, human NTR1; assay type: cell-based
T2 construct: expressed in transfected cells; host or cells: CHO-K1
Experimental: as §1

[7] = molecular target: T1, rat NTR1; assay: Competition binding with [3H]NT, membranes of CHO-K1 cells transfected with rat NTR1
Experimental: CHO-K1 cells were stably transfected with nucleic acid encoding either the human NTR1 or the rat NTR1, and cultured in 150 mm petri plates with 35 mL of Dulbecco-modified Eagle's medium containing 100 μM minimal essential medium nonessential amino acids (GIBCO) supplemented with 5% (v/v) FetalClone II bovine serum product (Hyclone Labs, Logan, Utah). CHO cells (subculture 9–19) were harvested at confluency. Briefly, the medium from each plate was removed by aspiration, and the cells washed with 6 mL of 50 mM Tris-HCl (pH 7.4) and resuspended in 5–10 mL of Tris-HCl by scraping the cells with a rubber spatula. The resuspended cells were placed into a centrifuge tube and collected by centrifugation at 300× g for five minutes at 4° C. in a GPR centrifuge (Beckman Instruments, Fullerton, Calif.). The cellular pellet (in 50 mM Tris-HCl, 1 mM EDTA, pH 7.4) was stored at […] until radioligand binding was performed.
The supernatant was decanted and discarded, and the cellular pellet was resuspended in 2 mL of Tris-HCl, 1 mM EDTA (pH 7.4) followed by homogenization with a Brinkmann Polytron at setting 6 for ten seconds. Centrifugation was repeated as above and the supernatant was decanted and discarded. The resulting final cellular pellet was resuspended in 50 mM Tris-HCl, lmM EDTA, 0.1% bovine serum albumin, and 0.2 mM bacitracin.
Incubation was at 20° C. for 30 minutes. Each reaction was terminated by addition of cold 0.9% NaCl (5×1.5 mL) followed by rapid filtration through a GF/B filter strip that had been pretreated with 0.2% polyethylenimine.

[8] = Body temperature (hypothermia) in rats; details: for change in body temperature: 5 mg/kg ip
[9] = 5 mg/kg ip after four days at 1 mg/kg ip
[10] = intraperitoneal administration (NT64L 1 mg/kg)

## CN[C@@H](CCCNC(=N)N)C(=O)N[C@@H](CCCCN)C(=O)N1CCC[C@H]1C(=O)N[C@@H](Cc1cccc2[nH]ccc12)C(=O)N[C@H](C(=O)N[C@@H](CC(C)C)C(=O)O)C(C)(C)C [NT69L] (H-[NMeR]KP[Ala(indol-4-yl)][Tle]L-OH; N-terminus and C-terminus assumed)
[1]; 1 mg/kg intraperitoneal
  time up to which peak % MPE of 100% was observed: about 200 minutes
[1]; 1 mg/kg intraperitoneal, rats
  time of Peak % MPE: 300 min
[1]; 1 mg/kg ip daily, day 1
  % MPE after the first injection: 100%
[1]; 1 mg/kg ip daily, day 2
  analgesic effect after the second injection: no analgesic effect
[1]; 1 mg/kg ip daily, day 3
  analgesic effect after the third injection: no analgesic effect
[1]; [9]
  analgesic effect on 5× challenge: no analgesic effect
[1]; [10]
  induction of antinociception (hot plate): did induce
[1]; intraperitoneal, @ 90 min
  ED50 % MPE: 0.3 mg/kg
[1]; nasal, 5 mg/kg, at 60 minutes
  peak % MPE value: 70%
[1]; oral, 20 mg/kg
  peak % MPE value: 11%
  time of Peak % MPE: 30 min
[2]; 5 mg/kg ip
  catalepsy scores in rats: no effect on catalepsy scores
[2]; 5 mg/kg ip 30 minutes after haloperidol 1 mg/kg ip
  haloperidol-induced catalepsy, test compound given after: reversed
[2]; 5 mg/kg ip 30 minutes before haloperidol 1 mg/kg ip
  haloperidol-induced catalepsy, test compound given before: did not exhibit significant cataleptic behavior
[2]; after the third and fourth days of NT69L 1 mg/kg ip
  catalepsy on haloperidol injection after chronic treatment: exhibited catalepsy
[2]; haloperidol 120 μg/kg ip, NT69L ip 40 minutes later, scored at 130 minutes
  ED50 reversal of haloperidol-induced catalepsy: 0.26 mg/kg
[3]
  catalepsy in mice: caused no catalepsy
[4]
  EC50: 1.34 ± 0.02 nM
  improvement in potency at PI turnover versus Eisai, rat NTR1: about two fold
[5]; control 2.34
  [125I]NT binding, PAG tissue: 1.89 dpm/μg protein
[5]; control 3.1
  [125I]NT binding, rest of brain tissue: 2.1 dpm/μg protein
[6]
  EC50: 2.3 nM
  improvement in potency at PI turnover versus Eisai, human NTR1: about 130 fold
[7]
  Kd: 0.82 ± 0.07 nM
  increase in binding affinity at the rat receptor versus Eisai: 6 fold
[8]; 1 mg/kg intraperitoneal
  time up to which body temperature reduction remained significant: up to 300 minutes
[8]; 1 mg/kg intraperitoneal, rats
  Peak BT change: −5.3 °C and −5.3 @ ° C.
[8]; 1 mg/kg ip daily, day 1
  body temperature lowering after the first injection: about 4 degrees
[8]; 1 mg/kg ip daily, day 2
  body temperature lowering after the second injection: 1.5 degrees
[8]; 1 mg/kg ip daily, day 3
  body temperature lowering after the third injection: no body temperature lowering was detected
[8]; [9]
  reduction in body temperature on 5× challenge: comparable to the reduction normally observed in naive rats
[8]; 30 minutes after injection
  change in body temperature: about −3 °C
[8]; 77 minutes after injection
  change in body temperature: about −4 °C
[8]; [10]
  induction of hypothermia: did induce
[8]; intraperitoneal, @ 90 min
  ED50 BT: 0.4 mg/kg
[8]; intraperitoneal, dose not restated
  peak reduction in body temperature: 5.3 °C
[8]; ip, at 90 minutes
  ED50 body temperature lowering: 0.39 mg/kg
[8]; nasal, 5 mg/kg, at 30 minutes
  peak reduction in body temperature (change): −1.4 °C
[8]; oral, 20 mg/kg
  peak reduction in body temperature (change): −0.63 °C
  time of peak reduction in body temperature: 60 min
